Data on three compounds can be found in paper PMC10647616, “Side-Chain Modified [^99mTc]Tc-DT1 Mimics: A Comparative Study in NTS1R-Positive Models” (International Journal of Molecular Sciences, 2023).

One data set concerns the target T1, human NTS1R (Homo sapiens, UniProt P30989).
T1 construct: freshly prepared membrane homogenates of human colon adenocarcinoma WiDr cells; endogenous in cells; host or cells: WiDr human colon adenocarcinoma cells (membrane homogenates)
The experiment in a line: Competition binding against [125I]I-Tyr3-NT in WiDr cell membrane homogenates. As to conditions: WiDr cell membranes, 1 h at 22 °C, mean ± sd; read-out: IC50, [125I]I-Tyr3-NT displacement from NTS1R binding sites. On the procedure: Aliquots of the cell membrane homogenates from WiDr cells (collected and stored at −80 °C in Tris/EDTA:10 mM of Tris, 0.1 mM of EDTA, pH 7.4) were thawed, combined and diluted in cold BB. In RIA tubes in triplicate, the test peptide (30 µL) of each concentration point, radioligand (70 µL) and membrane homogenate (200 µL) were consecutively added and thoroughly vortexed. Samples were placed for 1 h in the Incubator-Orbital Shaker (MPM Instr. Srl; Bernareggio, Italy) at 22 °C under constant steering. […] The samples were aspirated, and individual filters corresponding to each tube were collected in separate plastic tubes and measured for radioactivity on the γ-counter. Inhibition curves were plotted and the half maximal inhibitory concentration (IC50) values were calculated by applying a nonlinear one-site model (GraphPad Prism—6 Software, San Diego, CA, USA). The results for each compound are given as the average IC50 values ± sd of at least three independent repetitions of the experiment performed in triplicate.

For the next data set, the target named is albumin (Bos taurus, UniProt P02769). In kind it is in vitro ADME, bovine. How it is done: The binding of the new [^99mTc]Tc-DT10/11/12 and the [^99mTc]Tc-DT1 reference to albumin was compared via the incubation of radioligands in BSA-treated 6-well plates. Accordingly, HEPES-buffered saline (150 mM of NaCl, 20 mM of HEPES, pH 7.4) supplemented with 0.5% w/v BSA (1200 µL of HBS-BSA) was added to each well, followed by the radioligand (250 fmol peptide, in 150 µL of HBS) and either HBS-BSA (150 µL, total binding) or Ibuprofen (22.2 mg/mL in HBS, 150 µL), to reach a total final volume of 1.5 mL. The plates were incubated in triplicate at 37 °C for 30 min in the incubator. Next, the supernatants were discarded and the wells were treated with 1 M NaOH (2 × 600 µL). The lysates were combined and collected in RIA tubes for radioactivity measurement on the γ-counter. Binding to albumin was calculated as a percentage of the measured activity vs. the activity originally added per well. The experiments were performed at least three times in triplicate and the results represent the average binding to albumin ± sd.

In the next data set the test system is AsPC-1 cells. The experiment in a line: Time-dependent radioligand internalization in AsPC-1 cells. It counts as cell-based, human. The settings on record: 37 °C, at 1 h, non-specific (1 μM NT) subtracted. On the procedure: The time-dependent internalization of [^99mTc]Tc-DT10/11/12 was directly compared with [^99mTc]Tc-DT1 via incubation in AsPC-1 cells at 37 °C for 15 min, 30 min, 1 h and 2 h. The cells were seeded in 6-well plates (1 × 10^6 per well) and left in the incubator overnight. The next day, the cells were washed twice with ice-cold internalization medium (IM, RPMI supplemented with 1% FBS). The plates were placed on the bench and the following solutions were successively added per well: warm IM (1200 µL at 37 °C), radioligand (250 fmol in 150 µL of IM) and either IM (150 µL; 3 upper wells: total series) or NT (10^−5 M in IM, 3 bottom wells: non-specific series). The plates were placed in the incubator at 37 °C and, at the predetermined time points, were retrieved and placed on ice. […] The three fractions collected per well in separate RIA tubes (supernatant, MB and internalized) were measured for their radioactivity content on the γ-counter. The radioactivity of each fraction was then assessed as a percentage of the initial activity added per well. By subtracting the non-specific fractions from the respective total fractions, the specific MB and internalization fractions could be determined. […] The results were expressed as mean ± sd.

Residues, ends and D or L forms follow the SMILES beside them. *: point of attachment. N4 = 6-(carboxy)-1,4,8,11-tetraazaundecane chelator, NCCNCC(CNCCN)C(=O)*; Butanoyl(4-(4-MePh)) = Cc1ccc(CCCC(=O)*)cc1; X1 = NCCNCC(CNCCN)C(=O)*

By IC50 is commonly meant the concentration that inhibits the measured activity by half.

T1 sequence (P30989 whole entry): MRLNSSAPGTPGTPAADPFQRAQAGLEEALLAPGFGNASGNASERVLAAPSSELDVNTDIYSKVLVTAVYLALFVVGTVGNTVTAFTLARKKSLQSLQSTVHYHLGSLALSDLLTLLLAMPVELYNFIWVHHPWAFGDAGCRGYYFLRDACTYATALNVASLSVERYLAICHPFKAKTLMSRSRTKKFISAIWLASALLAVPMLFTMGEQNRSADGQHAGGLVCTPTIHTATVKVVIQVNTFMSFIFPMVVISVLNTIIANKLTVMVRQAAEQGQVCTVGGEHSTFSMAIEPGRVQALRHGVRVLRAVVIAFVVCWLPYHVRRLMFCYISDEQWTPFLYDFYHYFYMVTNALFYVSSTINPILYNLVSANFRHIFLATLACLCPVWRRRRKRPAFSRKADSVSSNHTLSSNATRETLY
Sequence of albumin (P02769 25-607): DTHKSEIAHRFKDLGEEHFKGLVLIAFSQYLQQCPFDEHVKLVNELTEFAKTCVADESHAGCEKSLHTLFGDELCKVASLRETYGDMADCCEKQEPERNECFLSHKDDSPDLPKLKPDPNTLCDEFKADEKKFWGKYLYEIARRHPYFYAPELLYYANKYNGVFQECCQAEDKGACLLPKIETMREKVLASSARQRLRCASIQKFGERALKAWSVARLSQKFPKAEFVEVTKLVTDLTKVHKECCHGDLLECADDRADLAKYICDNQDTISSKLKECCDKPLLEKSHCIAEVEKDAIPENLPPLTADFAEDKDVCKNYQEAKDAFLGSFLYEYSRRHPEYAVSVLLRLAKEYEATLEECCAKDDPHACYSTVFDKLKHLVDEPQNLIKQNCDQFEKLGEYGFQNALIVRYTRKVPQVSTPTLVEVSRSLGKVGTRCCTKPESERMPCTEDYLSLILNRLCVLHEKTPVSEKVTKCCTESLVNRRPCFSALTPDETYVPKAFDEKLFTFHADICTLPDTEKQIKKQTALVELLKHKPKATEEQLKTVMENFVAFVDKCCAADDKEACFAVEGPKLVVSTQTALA

With `CC[C@H](C)[C@H](NC(=O)[C@H](Cc1ccc(O)cc1)NC(=O)[C@@H]1CCCN1C(=O)[C@H](CCCNC(=N)N)NC(=O)[C@H](CCCNC(=N)N)NC(=O)CNC(=O)C(CNCCN)CNCCN)C(=O)N[C@@H](CC(C)C)C(=O)O` [DT1, N4-Gly-Arg-Arg-Pro-Tyr-Ile-Leu-OH] (X1-GRRPYIL-OH), the IC50 at human NTS1R was 0.14 ± 0.01 nM.
With `CC[C@H](C)[C@H](NC(=O)[C@H](Cc1ccc(O)cc1)NC(=O)[C@@H]1CCCN1C(=O)[C@H](CCCNC(=N)N)NC(=O)[C@H](CCCNC(=N)N)NC(=O)[C@H](CCCCNC(=O)CCCc1ccc(C)cc1)NC(=O)C(CNCCN)CNCCN)C(=O)N[C@@H](CC(C)C)C(=O)O` [DT10] (X1-K(Butanoyl(4-(4-MePh)))RRPYIL-OH), on human NTS1R, the IC50 is 0.06 ± 0.03 nM.
“[^99mTc]Tc-DT1: Tc-99m labeled DT1 (N4-Gly-Arg-Arg-Pro-Tyr-Ile-Leu-OH), unmodified reference radioligand (N4-GRRPYIL-OH; also: 99mTc complexed by N4 chelator)” displayed a binding to albumin with albumin of less than 1.0%. This compound also came in with a specific internalization in the data set with AsPC-1 cells of 15.1 ± 2.3%.
